Publication PMC7017090, “Repaglinide Silences the FOXO3/Lumican Axis and Represses the Associated Metastatic Potential of Neuronal Cancer Cells” (Cells, 2019)
One block for each molecule: values may come before it.

What was measured:
FOXO3 = FOXO3 (Homo sapiens, UniProt O43524); test: fluorescence polarization displacement of IRE-FAM oligonucleotide from recombinant FOXO3-DBD (Ki calculated from IC50 […]); supported by FAM-EMSA; assay type: binding
FOXO3-DBD = FOXO3-DBD (human, UniProt O43524 156-269); test: EMSA; 1 uM protein, 100 nM DNA; 'high affinity'; Not stated; FPA and FAM-EMSA as described in ref 24; conditions: protein: recombinant; blunt
FOXO3-DBD, sequence (O43524 156-269): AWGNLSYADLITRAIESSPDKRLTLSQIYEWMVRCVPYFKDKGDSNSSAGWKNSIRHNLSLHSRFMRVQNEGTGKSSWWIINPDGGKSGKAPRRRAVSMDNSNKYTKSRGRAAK

FOXO3, sequence (O43524 156-269): as above

Ki (FOXO3): 24.9 µM
Molecule: CCOc1cc(CC(=O)N[C@@H](CC(C)C)c2ccccc2N2CCCCC2)ccc1C(=O)O [RPG, repaglinide]

B1: FoxP3 oligonucleotide (FAM) (dsDNA)
DNA 1: AGCAAAGTTGTTTTTGATAATG
DNA 2: CATTATCAAAAACAACTTTGCT
binding result (FOXO3-DBD): binds
